Results on two compounds are retold here after patent publication US20250114335A1, “METHODS AND COMPOSITIONS FOR THE TREATMENT OF EPILEPSY” (ARIZONA BOARD OF REGENTS ON BEHALF OF THE UNIVERSITY OF …, priority 2022, published 2025).

The subject of test [1] is B6-D/D (Scn8a-N1768D) juvenile mice. As to the kind of experiment: Survival and seizure frequency, B6-D/D juvenile mice. It is filed as in vivo, mouse. The text has this:
Mouse strains: The C57BL/6J-N1768D congenic mouse (B6-D/+) was used for phenotyping, RNAseq, and BBB studies. In addition, a hybrid strain that was produced by backcross breeding to transfer the Scn8a-N1768D allele from the B6 to the C3H/HeJ strain background was used to further assess the effect of CND on survival and seizure frequency. After constructing an F1 by crossing male B6-D/+ heterozygotes to female C3H/HeJ, five rounds of backcrossing (N6) produced a […] and 98.5% C3H/HeJ-N1768D line (C3H-D/+). Sister-brother mating maintained the 98.5% C3H background. […] C3H-D/D mice have a delayed seizure onset (˜40-45 days) and an extended survival (65-70 days) with intermittent bouts of TCs (FIG. 1A).
Phenotyping: Female and male mice on both the B6 and C3H backgrounds were housed in sex-specific groups of 3-4 per cage in a pathogen-free mouse facility with a 14 h light/10 h dark cycle (lights turned on at 5 am). A 24/7 video monitoring system was utilized to collect seizure data, with infrared illumination to monitor behavior during the dark period. Seizures were counted as individual TCs. Adult mice were followed from the age of 6 weeks, a period of time well before seizure onset, in order to identify the day of seizure onset. A seizure bout was defined as a cluster of seizures on consecutive days, and a gap as a seizure-free period of 3 days or more.
Preparation of CND suspension for injections and oral dosing: Juvenile B6-D/D and adult B6-D/+ mice were given subcutaneous (s.c.) injections with either CND (2-4 mg/kg/day; doses that fall within the FDA-approved range for CND in both adults and children) or vehicle (VEH) (Sigma-Aldrich) (FIG. 1B). Oral dosing of adults was performed by thoroughly mixing 160 μl of suspension containing 1.28 mg of CND or VEH with 5 g of pure (organic) peanut butter in a petri dish. Mice were given 1 g pellet per mouse each day. Pellets were weighed each day to record the amount consumed, and 24/7 video was used to verify that each mouse was consuming the pellet. An average of 0.79 g (±0.36 g) was consumed by an adult mouse (˜20-25 g), corresponding to 9.1±4.2 mg/kg/day. No correlations were found for the amount of CND consumed and lifetime survival or number of TCs.
Survival and seizure frequency studies: B6-D/D mice were injected with CND (n=10) or VEH (n=10) at 15 days of age (P15) and followed to monitor TCs by 24/7 video recording until death (FIG. 1B). A separate set of 10 B6-D/D mice was administered a daily s.c. injection of 25 mg/kg/day phenytoin (PHT) suspension or VEH (US Pharmacopeia, Sigma-Aldrich). Oral administration of CND or VEH was initiated at the time of seizure onset (range P75-P85) for adult B6-D/+ females (N=10) and males (N=10) (FIG. 1B). Mice were monitored for seizures by 24/7 video recording until the time of death.

For test [2] the test system is unchanged. The settings on record: CBD-treated B6-D/D males, comparison; cited from earlier work.
Test [3] concerns B6-D/+ (Scn8a-N1768D) adult mice. The settings on record: CBD-treated B6-D/+ males, comparison; cited from earlier work.

Where “and” joins values, the source holds several entries; their conditions need not be identical. Equal entries are not always repeated.

Turning to `O=C1NC(=O)C(c2ccccc2)(c2ccccc2)N1` [PHT, phenytoin], in test [1] (B6-D/D Juveniles), the “survival of juveniles (in words)” value is recorded as “minor increase in survival that did not reach statistical significance”. In test [1] (B6-D/D juveniles, Treated), the “#TCs” value is listed as 55.9 TCs; the “#TCs/day (Life)” value was found to be 1.9 TCs/day; the “#TCs/day (PostTC)” value was 10.2±7.1 TCs/day and 10.2 TCs/day; the “#gaps” value amounted to 1.2. In addition, in test [1] (B6-D/D juveniles, Treated), the “Age at Onset” value came to 22.2, the “Days with TCs” value is 6.8 days, the gap days is listed as 5.2 days and the mean gap length is listed as 3.5. Besides, the “Age at Death” value in test [1] (B6-D/D juveniles, Treated, daily s.c. injection) is 30.1 ± 5.1 days and 30.1 days.
On to `C=C(C)[C@@H]1CCC(C)=C[C@H]1c1c(O)cc(CCCCC)cc1O` [CBD], for which the “standard effect size, survival” value was 0.35 in test [2] and 0.50 in test [3].
